Columns and labels:
[1] = target: T1, BRAF V600E (Homo sapiens, UniProt P15056, V600E); experiment: Z'-LYTE kinase inhibition assay against BRAF V600E; format: biochemical; conditions: % inhibition at 1 μM, Z'-LYTE method
T1 construct: purchased Invitrogen
Description: Inhibitory activities Inhibitory activities of compounds against BRAF, and BRAF V600E were measured by Invitrogen using Z′-LYTE® Method as briefly described in the following. 4× Test compounds are dissolved in 1% DMSO. […] ATP solutions are diluted to a 4×ATP working concentration in Kinase Buffer (50 mM HEPES pH 7.5, 0.01% BRIJ-35, 10 mM MgCl2, 1 mM EGTA). Reaction started by 30-second shaking of mixture consisting of 2.5 μL 4× test compound, […] and 2.5 μL 4×ATP Solution on Bar-coded Corning, low volume NBS, black 384-well plate (Corning Cat. #3676). Then the mixture was incubated for 60-minute at room temperature for the kinase reaction, followed by addition of 5 μL of a 1:1024 dilution of development reagent A and 30-second plate shake. The mixture was then incubated for another 60-minute at room temperature for development reaction. Fluorescence was read by plate reader. IC50 was calculated by plotting the concentration of compound vs the percentage of inhibition in treated wells using GraphPad Prism 5.
Table 2 and 3 show % inhibition at 1 μM of several compounds of the invention against BRAF and BRAF V600E, respectively, using Z′-LYTE® method.
The scale utilized in Table 4 is as follows: +++ less than 100 nM; and ++ greater than 100 nM.

[2] = target: T2, KDR (VEGFR2) (Homo sapiens, UniProt P35968); experiment: Z'-LYTE kinase inhibition assay against KDR; format: biochemical; conditions: % inhibition at 1 μM, Z'-LYTE method
T2 construct: purchased Invitrogen
Description: Inhibitory activities of compounds against KDR (VEGFR2) were also measured by Invitrogen using Z′-LYTE® Method as described above with the following modification. The 2×KDR (VEGFR2)/Tyr 01 mixture is prepared in 50 mM HEPES pH 7.5, 0.01% BRIJ-35, 10 mM MgCl2, 1 mM EGTA. The final 10 μL Kinase Reaction consists of 0.5-11.7 ng KDR (VEGFR2) and 2 μM Tyr 01 in 50 mM HEPES pH 7.5, 0.01% BRIJ-35, 10 mM MgCl2, 1 mM EGTA. After the 1 hour Kinase Reaction incubation, 5 μL of a 1:256 dilution of Development Reagent B is added.
The scale utilized in Table 6 is as follows: +++ less than 100 nM; and ++ greater than 100 nM

[3] = test system: A375 cells; experiment: Inhibition of cancer cell growth, MTT or MTS assay, A375; format: cell-based; conditions: Homo sapiens, A-375, 72 h incubation
Description: (§1) Inhibition of cell growth by compounds was measured using MTT or MTS assay. Tumor cell lines were purchased from ATCC (American Type Culture Collection, Manassas, Va.). All cell lines were maintained in RPMI 1640 (Hyclone) supplemented with 10% fetal bovine serum (FBS, Hyclone), glutamine (2 mM, Hyclone), and antibiotics (penicillin 100 U/mL and streptomycin 50 μg/mL) at 37° C. in a humidified atmosphere of 5% CO2 in air. Taxol (as a positive control, Sigma) and compounds were dissolved in DMSO (Sigma), and the final concentration of DMSO in the medium was 1%. Tumor cells were plated in 96-well plates at densities of about 2000 (A375) or 4000 (A549 and Colo205) cells/well of a 96-well plate and allowed to adhere/grow for 24 h. They were then treated with various concentrations of drug and incubated for 72 h. For MTT method, medium was then removed by inverting and tapping the plates. 100 μL of MTT (0.5 mg/ml) was added to each well followed by an incubated at 37° C. for 4 h. MTT was then removed and 200 μL of DMSO was added to each well, and the ODs at 570 nm were measured after a 5 second shaking cycle in a 96-well spectrophotometer. For MTS method, 20 μL MTS (CellTiter 96 Aqueous One Solution, Promega) was added to each well followed by an incubated at 37° C. for 2-4 h, solutions were then directly put in a 96-well spectrophotometer, and the ODs at 490 nm were measured.
(§2) All concentrations of compounds were tested in triplicate and controls were averaged over 4 wells. IC50 was calculated by plotting the concentration of compound vs the percentage of inhibition in treated wells using GraphPad Prism 5. […] The scale utilized in Tables 7-9 is as follows: +++ less than 1000 nM; ++ between 1000 nM and 5000 nM; and + greater than 5000 nM. The scale utilized in […]

[4] = test system: A549 cells; experiment: Inhibition of cancer cell growth, MTT or MTS assay, A549; format: cell-based; conditions: Homo sapiens, 72 h incubation
Description: as §1, §2

T2 sequence (P35968 20-1356): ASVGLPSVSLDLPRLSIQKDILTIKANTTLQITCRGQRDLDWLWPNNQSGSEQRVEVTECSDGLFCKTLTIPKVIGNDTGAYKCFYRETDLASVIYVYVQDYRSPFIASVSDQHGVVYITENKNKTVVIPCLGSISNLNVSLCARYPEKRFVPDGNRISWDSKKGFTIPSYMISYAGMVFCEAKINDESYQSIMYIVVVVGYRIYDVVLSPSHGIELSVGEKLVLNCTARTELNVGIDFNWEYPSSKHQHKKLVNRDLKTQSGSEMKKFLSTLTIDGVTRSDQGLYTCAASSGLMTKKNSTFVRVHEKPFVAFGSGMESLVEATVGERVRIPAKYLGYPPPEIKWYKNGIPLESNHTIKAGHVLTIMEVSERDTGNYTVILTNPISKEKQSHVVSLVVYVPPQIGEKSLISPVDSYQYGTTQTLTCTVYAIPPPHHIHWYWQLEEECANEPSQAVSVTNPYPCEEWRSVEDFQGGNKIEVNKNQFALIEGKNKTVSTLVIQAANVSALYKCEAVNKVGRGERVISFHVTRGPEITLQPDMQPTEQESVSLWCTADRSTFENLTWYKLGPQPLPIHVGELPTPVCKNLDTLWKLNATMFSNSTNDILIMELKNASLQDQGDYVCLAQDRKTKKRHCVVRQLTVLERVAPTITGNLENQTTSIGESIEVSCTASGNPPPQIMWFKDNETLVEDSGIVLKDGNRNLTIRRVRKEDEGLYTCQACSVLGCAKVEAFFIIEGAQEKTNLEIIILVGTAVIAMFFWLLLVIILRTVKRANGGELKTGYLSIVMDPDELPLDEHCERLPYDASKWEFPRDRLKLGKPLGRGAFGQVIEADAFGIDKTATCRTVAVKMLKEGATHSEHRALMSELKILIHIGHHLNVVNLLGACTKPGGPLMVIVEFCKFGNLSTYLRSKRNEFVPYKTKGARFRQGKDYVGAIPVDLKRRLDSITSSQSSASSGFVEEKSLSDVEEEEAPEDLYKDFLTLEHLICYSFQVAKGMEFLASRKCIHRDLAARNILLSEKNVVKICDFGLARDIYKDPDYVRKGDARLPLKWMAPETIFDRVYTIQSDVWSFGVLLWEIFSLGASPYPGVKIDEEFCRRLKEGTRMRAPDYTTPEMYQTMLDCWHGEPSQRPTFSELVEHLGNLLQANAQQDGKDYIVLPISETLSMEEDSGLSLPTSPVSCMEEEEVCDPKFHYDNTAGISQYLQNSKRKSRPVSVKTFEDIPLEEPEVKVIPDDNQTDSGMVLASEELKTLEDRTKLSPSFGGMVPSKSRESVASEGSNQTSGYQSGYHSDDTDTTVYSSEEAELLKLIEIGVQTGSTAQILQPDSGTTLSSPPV
T1 sequence (P15056 whole entry V600E): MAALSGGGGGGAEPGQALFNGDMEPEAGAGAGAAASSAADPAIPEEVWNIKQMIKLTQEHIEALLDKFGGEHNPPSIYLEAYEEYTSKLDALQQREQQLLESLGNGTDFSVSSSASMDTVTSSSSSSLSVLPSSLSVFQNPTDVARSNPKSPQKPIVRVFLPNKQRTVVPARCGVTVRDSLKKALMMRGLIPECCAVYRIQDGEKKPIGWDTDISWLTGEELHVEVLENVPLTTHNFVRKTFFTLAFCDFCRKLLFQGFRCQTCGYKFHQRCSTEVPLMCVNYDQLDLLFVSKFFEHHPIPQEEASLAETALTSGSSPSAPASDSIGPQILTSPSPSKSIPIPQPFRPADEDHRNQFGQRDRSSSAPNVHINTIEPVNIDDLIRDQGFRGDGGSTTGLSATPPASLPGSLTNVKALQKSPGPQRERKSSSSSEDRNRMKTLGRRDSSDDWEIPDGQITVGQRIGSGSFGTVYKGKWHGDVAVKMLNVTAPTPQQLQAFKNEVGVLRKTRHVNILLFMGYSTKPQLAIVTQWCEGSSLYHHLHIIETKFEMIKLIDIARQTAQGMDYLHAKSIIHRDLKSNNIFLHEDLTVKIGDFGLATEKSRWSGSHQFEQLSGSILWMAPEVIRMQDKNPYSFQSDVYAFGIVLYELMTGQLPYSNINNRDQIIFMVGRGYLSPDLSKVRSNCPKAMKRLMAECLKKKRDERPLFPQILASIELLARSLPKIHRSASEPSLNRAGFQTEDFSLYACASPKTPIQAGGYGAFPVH

inhibition at 1 µM [1] [%] | inhibition at 1 µM [2] [%] | IC50 [3] [µM] | IC50 [4] [µM] | SMILES
< 70 | 70 to 89 | 1 to 5 | 1 to 5 | O=C(Nc1ccc(C(=O)c2ccc3ncc(N4CCOCC4)nc3c2)cc1)Nc1ccc(F)c(C(F)(F)F)c1 [Compound C06, 1-(4-fluoro-3-(trifluoromethyl)phenyl)-3-(4-(3-morpholinoquinoxaline-6-carbonyl)phenyl)urea]
< 70 | 70 to 89 | 1 to 5 | 1 to 5 | O=C(Nc1ccc(C(=O)c2ccc3ncc(N4CCOCC4)nc3c2)cc1)Nc1ccc(Cl)c(C(F)(F)F)c1 [Compound C07, 1-(4-chloro-3-(trifluoromethyl)phenyl)-3-(4-(3-morpholinoquinoxaline-6-carbonyl)phenyl)urea]
< 70 | < 70 | < 1 | 1 to 5 | O=C(Nc1ccc(C(=O)c2ccc3ncc(N4CCOCC4)nc3c2)cc1)Nc1ccc(C(F)(F)F)cc1 [Compound C08, 1-(4-(3-morpholinoquinoxaline-6-carbonyl)phenyl)-3-(4-(trifluoromethyl)phenyl)urea]
< 70 | < 70 |  | > 5 | O=C(Nc1cccc(F)c1)Nc1ccc(C(=O)c2ccc3ncc(N4CCOCC4)nc3c2)c(F)c1 [Compound C22, 1-(3-fluoro-4-(3-morpholinoquinoxaline-6-carbonyl)phenyl)-3-(3-fluorophenyl)urea]
70 to 89 | < 70 |  | > 5 | O=C(Nc1ccc(F)cc1)Nc1ccc(C(=O)c2ccc3ncc(N4CCOCC4)nc3c2)c(F)c1 [Compound C23, 1-(3-fluoro-4-(3-morpholinoquinoxaline-6-carbonyl)phenyl)-3-(4-fluorophenyl)urea]
< 70 | 70 to 89 | 1 to 5 | 1 to 5 | O=C(Nc1cccc(C(F)(F)F)c1)Nc1ccc(C(=O)c2ccc3ncc(N4CCOCC4)nc3c2)c(F)c1 [Compound C24, 1-(3-fluoro-4-(3-morpholinoquinoxaline-6-carbonyl)phenyl)-3-(3-(trifluoromethyl)phenyl)urea]
< 70 | < 70 |  | 1 to 5 | O=C(Nc1ccc(C(=O)c2ccc3ncc(N4CCOCC4)nc3c2)c(F)c1)Nc1ccc(Cl)c(C(F)(F)F)c1 [Compound C25]
< 70 | < 70 |  | > 5 | N#Cc1cnc2ccc(C(=O)c3ccc(NC(=O)Nc4ccc(Cl)c(C(F)(F)F)c4)cc3F)cc2n1 [Compound C30, 1-(4-chloro-3-(trifluoromethyl)phenyl)-3-(4-(3-cyanoquinoxaline-6-carbonyl)-3-fluorophenyl)urea]
70 to 89 | < 70 |  |  | Cn1cc(NC(=O)Nc2ccc(C(=O)c3ccc4ncc(N5CCNCC5)nc4c3)c(F)c2)cn1 [Compound C32, 1-(3-fluoro-4-(3-(piperazin-1-yl)quinoxaline-6-carbonyl)phenyl)-3-(1-methyl-1H-pyrazol-4-yl)urea]
> 89 | < 70 | 1 to 5 |  | Cc1cc(NC(=O)Nc2ccc(C(=O)c3ccc4ncc(N5CCNCC5)nc4c3)c(F)c2)no1 [Compound C33, 1-(3-fluoro-4-(3-(piperazin-1-yl)quinoxaline-6-carbonyl)phenyl)-3-(5-methylisoxazol-3-yl)urea]
 |  | > 5 |  | O=C(Nc1ccc(C(=O)c2ccc3ncc(N4CCOCC4)nc3c2)c(F)c1)c1cccc(F)c1 [Compound C34, 3-fluoro-N-(3-fluoro-4-(3-morpholinoquinoxaline-6-carbonyl)phenyl)benzamide]
 |  | > 5 |  | O=C(Nc1ccc(C(=O)c2ccc3ncc(N4CCOCC4)nc3c2)c(F)c1)c1ccc(Cl)cc1 [Compound C35, 4-chloro-N-(3-fluoro-4-(3-morpholinoquinoxaline-6-carbonyl)phenyl)benzamide]
 |  | > 5 |  | O=C(Nc1ccc(C(=O)c2ccc3ncc(N4CCOCC4)nc3c2)c(F)c1)c1ccc(Cl)c(C(F)(F)F)c1 [Compound C36, 4-chloro-N-(3-fluoro-4-(3-morpholinoquinoxaline-6-carbonyl)phenyl)-3-(trifluoromethyl)benzamide]
 |  | > 5 |  | O=C(Nc1ccc(C(=O)c2ccc3ncc(N4CCOCC4)nc3c2)c(F)c1)c1cccc(Cl)c1 [Compound C37, 3-chloro-N-(3-fluoro-4-(3-morpholinoquinoxaline-6-carbonyl)phenyl)benzamide]
 |  | 1 to 5 |  | O=C(Nc1ccc(C(=O)c2ccc3ncc(N4CCOCC4)nc3c2)c(F)c1)c1cccc(C(F)(F)F)c1 [Compound C38, N-(3-fluoro-4-(3-morpholinoquinoxaline-6-carbonyl)phenyl)-3-(trifluoromethyl)benzamide]
 |  | 1 to 5 |  | O=C(Nc1ccc(C(=O)c2ccc3ncc(N4CCNCC4)nc3c2)c(F)c1)c1cccc(F)c1 [Compound C39, 3-fluoro-N-(3-fluoro-4-(3-(piperazin-1-yl)quinoxaline-6-carbonyl)phenyl)benzamide]
 |  | 1 to 5 |  | O=C(Nc1ccc(C(=O)c2ccc3ncc(N4CCNCC4)nc3c2)c(F)c1)c1ccc(Cl)cc1 [Compound C40, 4-chloro-N-(3-fluoro-4-(3-(piperazin-1-yl)quinoxaline-6-carbonyl)phenyl)benzamide]
 |  | < 1 |  | O=C(Nc1ccc(C(=O)c2ccc3ncc(N4CCNCC4)nc3c2)c(F)c1)c1cccc(Cl)c1 [Compound C41, 3-chloro-N-(3-fluoro-4-(3-(piperazin-1-yl)quinoxaline-6-carbonyl)phenyl)benzamide]
 |  | 1 to 5 |  | O=C(Nc1ccc(C(=O)c2ccc3ncc(N4CCNCC4)nc3c2)c(F)c1)c1cccc(C(F)(F)F)c1 [Compound C42, N-(3-fluoro-4-(3-(piperazin-1-yl)quinoxaline-6-carbonyl)phenyl)-3-(trifluoromethyl)benzamide]
 |  | < 1 |  | O=C(Nc1ccc(C(=O)c2ccc3ncc(N4CCNCC4)nc3c2)c(F)c1)c1ccc(Cl)c(C(F)(F)F)c1 [Compound C43, 4-chloro-N-(3-fluoro-4-(3-(piperazin-1-yl)quinoxaline-6-carbonyl)phenyl)-3-(trifluoromethyl)benzamide]

SMILES | inhibition at 1 µM [1] [%] | inhibition at 1 µM [2] [%] | IC50 [3] [µM] | IC50 [4] [µM]
N#Cc1ccc(NC(=O)Nc2ccc(C(=O)c3ccc4ncc(N5CCOCC5)nc4c3)cc2)cc1C(F)(F)F [Compound C15, 1-(4-cyano-3-(trifluoromethyl)phenyl)-3-(4-(3-morpholinoquinoxaline-6-carbonyl)phenyl)urea] | < 70 | 70 to 89 | 1 to 5 | 1 to 5
N#Cc1ccc(NC(=O)Nc2ccc(C(=O)c3ccc4ncc(N5CCOCC5)nc4c3)c(F)c2)cc1C(F)(F)F [Compound C18, 1-(4-cyano-3-(trifluoromethyl)phenyl)-3-(3-fluoro-4-(3-morpholinoquinoxaline-6-carbonyl)phenyl)urea] | 70 to 89 | 70 to 89 | 1 to 5 | 1 to 5

— US10047059B2, “Substituted quinoxalines for inhibiting kinase activity” (NEUPHARMA, INC., priority 2012, dated 2018)
